From PubChem BioAssay AID1994 (Broad Institute, 2009)
Results filed as inconclusive are left out. Active and inactive are the calls of the source. The rule behind the calls is not given here.

Tested on: H4 cells, PrP 5'UTR luciferase reporter translation
Assay: prion protein stem-loop luciferase translation blockers – luminescence, dose response (AID 1994)

SMILES	EC50
C#CCOCCOCCOCCNc1nc(N2CCN(C(=O)CCCCCCCCCCNC(=O)[C@H](CO)n3cc(CCCSC)nn3)CC2)nc(N2CCN(C(=O)CCCCCCCCCCNC(=O)[C@H](CCCCN)n3cc(C[C@@H](C)CC)nn3)CC2)n1	> 12000 nM (inactive)
C=C(C=O)CC1CC(O)[C@]2(C)OC3CC4OC5C[C@]6(C)O[C@]7(C)CCC8OC9C[C@]%10(C)OC%11C(C)=CC(=O)OC%11CC%10OC9C[C@@H](C)C8OC7CC6O[C@]5(C)CC5OC5C4OC3CC2O1 (some centres not stated)	1580 nM
